Measured values as given in PubChem BioAssay (NCI).
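GI50: concentration for 50% inhibition of growth. At the TGI there is no net growth.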

Columns and labels:
Test in all cases: DTP human tumour cell line panel, 384-well format
HL-60(TB) leukemia = tested on: HL-60(TB) leukemia
LOX IMVI melanoma = tested on: LOX IMVI melanoma
EKVX NSCLC = tested on: EKVX NSCLC
K-562 leukemia = tested on: K-562 leukemia
M14 melanoma = tested on: M14 melanoma
PC-3 prostate = tested on: PC-3 prostate
HT29 colon = tested on: HT29 colon
SNB-19 CNS = tested on: SNB-19 CNS
NCI-H322M lung = tested on: NCI-H322M lung
MOLT-4 leukemia = tested on: MOLT-4 leukemia
SK-MEL-5 melanoma = tested on: SK-MEL-5 melanoma
IGROV1 ovarian = tested on: IGROV1 ovarian
CAKI-1 renal = tested on: CAKI-1 renal
RXF 393 renal = tested on: RXF 393 renal
MDA-MB-231 breast = tested on: MDA-MB-231 breast
NCI-H23 lung = tested on: NCI-H23 lung
MALME-3M melanoma = tested on: MALME-3M melanoma
SK-MEL-28 melanoma = tested on: SK-MEL-28 melanoma
TK-10 renal = tested on: TK-10 renal
SR leukemia = tested on: SR leukemia
U251 glioblastoma = tested on: U251 glioblastoma
SF-268 CNS = tested on: SF-268 CNS
NCI-H226 lung = tested on: NCI-H226 lung
SF-539 CNS = tested on: SF-539 CNS
SK-OV-3 ovarian = tested on: SK-OV-3 ovarian
CCRF-CEM leukemia = tested on: CCRF-CEM leukemia
MCF7 breast = tested on: MCF7 breast
HOP-92 NSCLC = tested on: HOP-92 NSCLC
SNB-75 CNS = tested on: SNB-75 CNS

Cc1noc(C)c1-c1ccc2[nH]c(=O)n3c2c1OC[C@@H]3c1ccccn1
GI50 (HL-60(TB) leukemia): 55.6 nM | TGI (HL-60(TB) leukemia): 170 nM | GI50 (LOX IMVI melanoma): 277 nM | TGI (LOX IMVI melanoma): 1040 nM | GI50 (EKVX NSCLC): > 100000 nM | TGI (EKVX NSCLC): > 100000 nM | GI50 (K-562 leukemia): 436 nM | TGI (K-562 leukemia): > 100000 nM | GI50 (M14 melanoma): 720 nM | TGI (M14 melanoma): > 100000 nM | GI50 (PC-3 prostate): 245 nM | TGI (PC-3 prostate): > 100000 nM | GI50 (HT29 colon): 371 nM | TGI (HT29 colon): > 100000 nM | GI50 (SNB-19 CNS): 1870 nM | TGI (SNB-19 CNS): > 100000 nM | GI50 (NCI-H322M lung): 591 nM | TGI (NCI-H322M lung): > 100000 nM | GI50 (MOLT-4 leukemia): 421 nM | TGI (MOLT-4 leukemia): 11900 nM | GI50 (SK-MEL-5 melanoma): 198 nM | TGI (SK-MEL-5 melanoma): 9840 nM | GI50 (IGROV1 ovarian): 532 nM | TGI (IGROV1 ovarian): 53000 nM | GI50 (CAKI-1 renal): 243 nM | TGI (CAKI-1 renal): > 100000 nM | GI50 (RXF 393 renal): 483 nM | TGI (RXF 393 renal): 11000 nM | GI50 (MDA-MB-231 breast): 605 nM | TGI (MDA-MB-231 breast): > 100000 nM | GI50 (NCI-H23 lung): 483 nM | TGI (NCI-H23 lung): > 100000 nM | GI50 (MALME-3M melanoma): 398 nM | TGI (MALME-3M melanoma): 32300 nM | GI50 (SK-MEL-28 melanoma): 813 nM | TGI (SK-MEL-28 melanoma): > 100000 nM | GI50 (TK-10 renal): 265 nM | TGI (TK-10 renal): 23100 nM | GI50 (SR leukemia): 52.3 nM | TGI (SR leukemia): 2040 nM | GI50 (U251 glioblastoma): 2560 nM | TGI (U251 glioblastoma): > 100000 nM | GI50 (SF-268 CNS): 3010 nM | TGI (SF-268 CNS): > 100000 nM | GI50 (NCI-H226 lung): 1430 nM | TGI (NCI-H226 lung): > 100000 nM | GI50 (SF-539 CNS): 449 nM | TGI (SF-539 CNS): 8790 nM | GI50 (SK-OV-3 ovarian): 244 nM | TGI (SK-OV-3 ovarian): 21300 nM | GI50 (CCRF-CEM leukemia): 584 nM | TGI (CCRF-CEM leukemia): > 100000 nM | GI50 (MCF7 breast): 125 nM | TGI (MCF7 breast): > 100000 nM | GI50 (HOP-92 NSCLC): 241 nM | TGI (HOP-92 NSCLC): > 100000 nM | GI50 (SNB-75 CNS): 1270 nM | TGI (SNB-75 CNS): > 100000 nM
